# Legend:
# Assay in all cases: GC-MS of reaction products
# Assay type in all cases: biochemical
# Conditions in all cases: 2.5 uM GDP, HEPES pH 7.4, 0.1 M KCl, 10 mM MgCl2, 10 mM DTT, 10% glycerol, 30 °C, 1 h
# PbTPS9 = biological target: T1, PbTPS9 (Phalaenopsis bellina, UniProt A0A8F9U9F3)
# T1 construct: gene TPS9; ORF in pET-28b, His-tag at N- and C-termini, E. coli C41 (DE3) pLysS, TALON purified; tag removal not mentioned
# T1 sequence (A0A8F9U9F3 1-598 limits assumed): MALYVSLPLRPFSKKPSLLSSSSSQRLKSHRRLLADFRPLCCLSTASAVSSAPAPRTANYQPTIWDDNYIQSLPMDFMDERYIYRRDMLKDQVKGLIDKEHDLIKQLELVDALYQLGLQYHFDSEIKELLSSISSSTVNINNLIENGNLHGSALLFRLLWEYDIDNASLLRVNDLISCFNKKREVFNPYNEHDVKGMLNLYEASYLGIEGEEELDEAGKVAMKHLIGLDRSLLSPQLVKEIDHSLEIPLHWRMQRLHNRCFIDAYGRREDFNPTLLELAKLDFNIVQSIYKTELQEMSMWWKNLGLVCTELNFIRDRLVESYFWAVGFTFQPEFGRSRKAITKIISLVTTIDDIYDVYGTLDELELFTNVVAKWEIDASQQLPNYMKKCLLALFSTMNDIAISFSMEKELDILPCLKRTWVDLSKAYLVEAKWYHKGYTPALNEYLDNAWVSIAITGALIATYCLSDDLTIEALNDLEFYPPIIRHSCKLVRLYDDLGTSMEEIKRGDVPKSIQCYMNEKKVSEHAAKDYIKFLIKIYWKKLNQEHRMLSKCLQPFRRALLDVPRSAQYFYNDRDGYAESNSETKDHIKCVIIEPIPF
# PbTPS4 = biological target: T2, PbTPS4 (Phalaenopsis bellina, UniProt A0A8F9U8Q1)
# T2 construct: gene TPS4; ORF in pET-28b, His-tag at N- and C-termini, E. coli C41 (DE3) pLysS, TALON purified; tag removal not mentioned
# T2 sequence (A0A8F9U8Q1 1-868): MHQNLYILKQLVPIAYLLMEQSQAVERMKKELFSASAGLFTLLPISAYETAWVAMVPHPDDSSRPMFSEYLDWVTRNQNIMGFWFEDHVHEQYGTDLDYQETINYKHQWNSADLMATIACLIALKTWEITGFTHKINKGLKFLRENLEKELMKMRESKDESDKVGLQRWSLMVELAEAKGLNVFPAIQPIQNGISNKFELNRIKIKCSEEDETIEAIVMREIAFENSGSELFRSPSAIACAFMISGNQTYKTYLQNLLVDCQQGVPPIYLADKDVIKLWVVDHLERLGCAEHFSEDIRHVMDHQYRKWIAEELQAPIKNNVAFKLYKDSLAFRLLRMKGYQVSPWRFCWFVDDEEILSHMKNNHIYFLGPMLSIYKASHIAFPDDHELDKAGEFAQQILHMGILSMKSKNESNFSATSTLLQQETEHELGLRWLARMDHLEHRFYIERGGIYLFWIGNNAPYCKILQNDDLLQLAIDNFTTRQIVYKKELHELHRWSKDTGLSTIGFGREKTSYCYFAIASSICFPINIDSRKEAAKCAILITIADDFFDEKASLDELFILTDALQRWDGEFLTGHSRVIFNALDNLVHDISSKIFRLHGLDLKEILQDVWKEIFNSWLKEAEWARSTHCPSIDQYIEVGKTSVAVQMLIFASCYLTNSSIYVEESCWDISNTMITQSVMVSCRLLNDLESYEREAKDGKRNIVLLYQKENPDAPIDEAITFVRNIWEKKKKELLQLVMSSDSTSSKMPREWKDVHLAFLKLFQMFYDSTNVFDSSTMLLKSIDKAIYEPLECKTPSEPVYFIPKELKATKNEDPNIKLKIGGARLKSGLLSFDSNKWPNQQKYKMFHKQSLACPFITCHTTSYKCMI
# PbTPS3 = biological target: T3, PbTPS3 (Phalaenopsis bellina, UniProt A0A8F9U8Q4)
# T3 construct: gene TPS3; ORF in pET-28b, His-tag at N- and C-termini, E. coli C41 (DE3) pLysS, TALON purified; tag removal not mentioned
# T3 sequence (A0A8F9U8Q4 1-769): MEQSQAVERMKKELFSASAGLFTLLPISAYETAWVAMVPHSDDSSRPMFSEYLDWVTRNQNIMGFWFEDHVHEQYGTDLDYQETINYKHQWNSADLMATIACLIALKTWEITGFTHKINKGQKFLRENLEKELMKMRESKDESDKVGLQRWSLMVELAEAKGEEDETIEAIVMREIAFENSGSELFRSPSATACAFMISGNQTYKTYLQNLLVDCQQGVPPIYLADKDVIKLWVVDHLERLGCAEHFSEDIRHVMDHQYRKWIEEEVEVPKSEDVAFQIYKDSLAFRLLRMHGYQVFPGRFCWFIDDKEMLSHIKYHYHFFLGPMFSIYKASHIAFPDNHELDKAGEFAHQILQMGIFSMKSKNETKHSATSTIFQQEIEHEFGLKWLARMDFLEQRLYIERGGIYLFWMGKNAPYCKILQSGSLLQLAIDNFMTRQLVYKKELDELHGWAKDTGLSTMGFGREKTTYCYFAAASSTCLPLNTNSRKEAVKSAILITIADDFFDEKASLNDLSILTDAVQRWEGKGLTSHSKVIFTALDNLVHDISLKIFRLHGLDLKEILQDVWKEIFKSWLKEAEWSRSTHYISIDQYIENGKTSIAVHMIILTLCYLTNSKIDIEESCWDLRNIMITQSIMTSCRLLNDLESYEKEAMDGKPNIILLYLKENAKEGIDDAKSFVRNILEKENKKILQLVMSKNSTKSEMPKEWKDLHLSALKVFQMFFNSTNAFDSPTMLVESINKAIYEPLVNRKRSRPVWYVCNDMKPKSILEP
# PbTPS5 = biological target: T4, PbTPS5 (Phalaenopsis bellina, UniProt A0A8F9UAD9)
# T4 construct: gene TPS5; tag removal not mentioned
# T4 sequence (A0A8F9UAD9 1-605 limits assumed): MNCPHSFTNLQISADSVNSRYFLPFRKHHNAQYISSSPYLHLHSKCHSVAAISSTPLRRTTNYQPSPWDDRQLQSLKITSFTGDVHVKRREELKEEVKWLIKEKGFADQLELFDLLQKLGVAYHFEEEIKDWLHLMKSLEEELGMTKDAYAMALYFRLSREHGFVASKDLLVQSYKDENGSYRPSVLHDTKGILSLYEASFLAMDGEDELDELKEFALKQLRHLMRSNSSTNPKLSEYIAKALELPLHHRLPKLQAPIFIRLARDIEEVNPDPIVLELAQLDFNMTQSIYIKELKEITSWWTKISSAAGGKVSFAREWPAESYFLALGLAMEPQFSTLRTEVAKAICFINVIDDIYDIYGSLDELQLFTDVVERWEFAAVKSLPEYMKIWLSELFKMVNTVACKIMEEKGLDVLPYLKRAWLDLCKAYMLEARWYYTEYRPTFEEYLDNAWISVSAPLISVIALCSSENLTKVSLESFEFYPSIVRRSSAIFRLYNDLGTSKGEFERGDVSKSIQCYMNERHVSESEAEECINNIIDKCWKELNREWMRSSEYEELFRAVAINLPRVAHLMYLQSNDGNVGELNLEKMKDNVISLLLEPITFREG
smiles,measurement,setting,value
CC(C)=CCC/C(C)=C/COP(=O)(O)OP(=O)(O)O [GDP],GC-MS of reaction products,PbTPS9,The product of PbTPS9 was geraniol (Figure 5B)
same,GC-MS of reaction products,PbTPS4,PbTPS4 was a linalool synthase and used GDP as the substrate (Figure 6B)
same,GC-MS of reaction products,PbTPS3,PbTPS3 was a dual enzyme as a linalool/(β)-cis-ocimene synthase (Figure 6A)
same,GC-MS of reaction products,PbTPS5,Geraniol was detected as the main product catalyzed by PbTPS5 (Figure 5A)

# Source: article PMC8318001, “Terpene Synthase-b and Terpene Synthase-e/f Genes Produce Monoterpenes for Phalaenopsis bellina Floral Scent” (Frontiers in Plant Science, 2021)
